Test results: ChEMBL document CHEMBL1177794, “Broad spectrum alkynyl inhibitors of T315I Bcr-Abl” (Bioorg Med Chem Lett, 2010)

What was measured:
[1] = biological target: Protein kinase C iota type (Homo sapiens) (UniProt P41743); assay: Inhibition of PRKCI at 10 uM
[2] = test system: Leucine-rich repeat serine/threonine-protein kinase 2 (Homo sapiens), Q5S007 [G2019S]; assay: Inhibition of LRRK2 G2019S mutant at 10 uM; details: values are per cent of control
[3] = biological target: Cyclin-dependent kinase 9 (Homo sapiens) (UniProt P50750); assay: Inhibition of CDK9 at 10 uM; values are per cent of control
[4] = biological target: Mitogen-activated protein kinase 8 (Homo sapiens) (UniProt P45983); assay: Inhibition of JNK1 at 10 uM; values are per cent of control
[5] = biological target: Mitogen-activated protein kinase kinase kinase 2 (Homo sapiens) (UniProt Q9Y2U5); assay: Inhibition of MAP3K2 at 10 uM; details: values are per cent of control
[6] = biological target: MAP kinase-interacting serine/threonine-protein kinase 1 (Homo sapiens) (UniProt Q9BUB5); assay: Inhibition of MKNK1 at 10 uM
[7] = biological target: Calcium/calmodulin-dependent protein kinase type II subunit delta (Homo sapiens) (UniProt Q13557); assay: Inhibition of CAMK2D at 10 uM; details: values are per cent of control
[8] = biological target: Bone morphogenetic protein receptor type-2 (Homo sapiens) (UniProt Q13873); assay: Inhibition of BMPR2 at 10 uM; values are per cent of control
[9] = biological target: Phosphatidylinositol 4,5-bisphosphate 3-kinase catalytic subunit beta isoform (Homo sapiens) (UniProt P42338); assay: Inhibition of PIK3CB at 10 uM
[10] = biological target: Homeodomain-interacting protein kinase 1 (Homo sapiens) (UniProt Q86Z02); assay: Inhibition of HIPK1 at 10 uM; details: values are per cent of control
[11] = biological target: Tyrosine-protein kinase JAK1 (Homo sapiens) (UniProt P23458); assay: Inhibition of JAK1 JH1 catalytic domain at 10 uM; values are per cent of control
[12] = biological target: Cyclin-dependent kinase 2 (Homo sapiens) (UniProt P24941); assay: Inhibition of CDK2 at 10 uM; values are per cent of control
[13] = biological target: Homeodomain-interacting protein kinase 3 (Homo sapiens) (UniProt Q9H422); assay: Inhibition of HIPK3 at 10 uM; details: values are per cent of control
[14] = biological target: Serine/threonine-protein kinase RIO1 (Homo sapiens) (UniProt Q9BRS2); assay: Inhibition of RIOK1 at 10 uM
[15] = biological target: Serine/threonine-protein kinase DCLK2 (Homo sapiens) (UniProt Q8N568); assay: Inhibition of DCAMKL2 at 10 uM; details: values are per cent of control
[16] = biological target: Mitogen-activated protein kinase kinase kinase 3 (Homo sapiens) (UniProt Q99759); assay: Inhibition of MAP3K3 at 10 uM; details: values are per cent of control
[17] = biological target: Serine/threonine-protein kinase B-raf (Homo sapiens) (UniProt P15056); assay: Inhibition of BRAF at 10 uM; details: values are per cent of control
[18] = biological target: Epidermal growth factor receptor (Homo sapiens) (UniProt P04626+P00533+Q15303+P21860); assay: Inhibition of EGFR L747-T751del, Sins mutant at 10 uM; values are per cent of control
[19] = biological target: Wee1-like protein kinase (Homo sapiens) (UniProt P30291); assay: Inhibition of WEE1 at 10 uM; details: values are per cent of control
[20] = biological target: Macrophage colony-stimulating factor 1 receptor (Homo sapiens) (UniProt P07333); assay: Inhibition of CSF1R at 10 uM; details: values are per cent of control
[21] = biological target: High affinity nerve growth factor receptor (Homo sapiens) (UniProt P04629); assay: Inhibition of TRKA at 10 uM; values are per cent of control
Sequence of High affinity nerve growth factor receptor (Homo sapiens) (P04629 33-796 limits assumed): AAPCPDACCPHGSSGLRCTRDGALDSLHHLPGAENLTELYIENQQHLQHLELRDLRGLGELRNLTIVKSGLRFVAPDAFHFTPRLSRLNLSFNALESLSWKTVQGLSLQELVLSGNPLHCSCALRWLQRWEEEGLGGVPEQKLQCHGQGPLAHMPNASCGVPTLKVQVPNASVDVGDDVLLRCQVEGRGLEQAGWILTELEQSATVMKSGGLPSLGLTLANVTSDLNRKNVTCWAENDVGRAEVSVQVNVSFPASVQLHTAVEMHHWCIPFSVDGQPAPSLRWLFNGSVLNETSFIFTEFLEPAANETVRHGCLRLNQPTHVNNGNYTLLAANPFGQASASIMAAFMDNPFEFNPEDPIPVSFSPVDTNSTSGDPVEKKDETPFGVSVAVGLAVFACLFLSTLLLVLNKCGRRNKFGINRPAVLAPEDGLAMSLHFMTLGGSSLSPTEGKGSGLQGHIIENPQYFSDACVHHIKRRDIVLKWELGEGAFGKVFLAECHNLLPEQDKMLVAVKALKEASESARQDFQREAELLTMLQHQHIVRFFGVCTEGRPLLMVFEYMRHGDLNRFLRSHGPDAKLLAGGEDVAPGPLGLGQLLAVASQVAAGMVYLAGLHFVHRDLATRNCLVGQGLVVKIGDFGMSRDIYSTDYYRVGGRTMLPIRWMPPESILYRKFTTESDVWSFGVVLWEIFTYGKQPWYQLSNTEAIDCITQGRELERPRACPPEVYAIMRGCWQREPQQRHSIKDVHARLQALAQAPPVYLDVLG

[22] = biological target: Serine/threonine-protein kinase DCLK3 (Homo sapiens) (UniProt Q9C098); assay: Inhibition of DCAMKL3 at 10 uM; details: values are per cent of control
[23] = biological target: Inhibitor of nuclear factor kappa-B kinase subunit epsilon (Homo sapiens) (UniProt Q14164); assay: Inhibition of IKK-epsilon at 10 uM; details: values are per cent of control
Sequence of Inhibitor of nuclear factor kappa-B kinase subunit epsilon (Homo sapiens) (Q14164 whole entry): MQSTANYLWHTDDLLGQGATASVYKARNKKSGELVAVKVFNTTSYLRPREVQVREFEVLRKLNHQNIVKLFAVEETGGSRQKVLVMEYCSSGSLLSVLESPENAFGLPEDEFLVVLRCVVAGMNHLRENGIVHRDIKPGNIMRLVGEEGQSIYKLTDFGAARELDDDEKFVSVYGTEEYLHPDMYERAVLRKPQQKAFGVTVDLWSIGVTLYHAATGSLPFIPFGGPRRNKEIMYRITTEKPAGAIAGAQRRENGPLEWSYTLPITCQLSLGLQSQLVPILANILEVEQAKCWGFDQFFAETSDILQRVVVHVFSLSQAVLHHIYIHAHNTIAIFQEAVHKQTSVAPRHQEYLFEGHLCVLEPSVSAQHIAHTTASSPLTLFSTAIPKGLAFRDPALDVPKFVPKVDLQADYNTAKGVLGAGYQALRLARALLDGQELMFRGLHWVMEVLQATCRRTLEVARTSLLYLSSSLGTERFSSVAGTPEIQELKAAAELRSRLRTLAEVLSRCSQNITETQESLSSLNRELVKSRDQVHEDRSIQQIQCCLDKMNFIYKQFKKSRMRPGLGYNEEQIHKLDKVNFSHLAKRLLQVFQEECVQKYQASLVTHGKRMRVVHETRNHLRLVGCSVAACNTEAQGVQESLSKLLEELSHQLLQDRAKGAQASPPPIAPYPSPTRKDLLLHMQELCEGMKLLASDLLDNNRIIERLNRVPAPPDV

[24] = biological target: Serine/threonine-protein kinase D1 (Homo sapiens) (UniProt Q15139); assay: Inhibition of PRKD1 at 10 uM
[25] = biological target: Ephrin type-A receptor 7 (Homo sapiens) (UniProt Q15375); assay: Inhibition of EPHA7 at 10 uM; details: values are per cent of control
[26] = biological target: Vascular endothelial growth factor receptor 2 (Homo sapiens) (UniProt P35968); assay: Inhibition of VEGFR2 at 10 uM; details: values are per cent of control
[27] = biological target: Serine/threonine-protein kinase 32A (Homo sapiens) (UniProt Q8WU08); assay: Inhibition of YANK1 at 10 uM; details: values are per cent of control
[28] = biological target: Serine/threonine-protein kinase PAK 5 (Homo sapiens) (UniProt Q9P286); assay: Inhibition of PAK7 at 10 uM; details: values are per cent of control
[29] = biological target: Myosin-IIIb (Homo sapiens) (UniProt Q8WXR4); assay: Inhibition of MYO3B at 10 uM
[30] = biological target: Protein kinase C delta type (Homo sapiens) (UniProt Q05655); assay: Inhibition of PRKCD at 10 uM
[31] = biological target: Serine/threonine-protein kinase 36 (Homo sapiens) (UniProt Q9NRP7); assay: Inhibition of STK36 at 10 uM
[32] = biological target: Non-receptor tyrosine-protein kinase TYK2 (Homo sapiens) (UniProt P29597); assay: Inhibition of TYK2 JH1 catalytic domain at 10 uM; details: values are per cent of control
[33] = test system: Tyrosine-protein kinase ABL1 (Homo sapiens), P00519 [H396P]; assay: Inhibition of phosphorylated ABL1 H396P mutant at 10 uM; details: values are per cent of control
[34] = biological target: Tyrosine-protein kinase Lyn (Homo sapiens) (UniProt P07948); assay: Inhibition of LYN at 10 uM; values are per cent of control
[35] = test system: Tyrosine-protein kinase ABL1 (Homo sapiens), P00519 [F317I]; assay: Inhibition of phosphorylated ABL1 F317I mutant at 10 uM; details: values are per cent of control
[36] = biological target: Ribosomal protein S6 kinase alpha-2 (Homo sapiens) (UniProt Q15349); assay: Inhibition of RSK3 N-terminal domain1 at 10 uM
[37] = biological target: Aurora kinase C (Homo sapiens) (UniProt Q9UQB9); assay: Inhibition of AURKC at 10 uM; details: values are per cent of control
[38] = biological target: Tyrosine-protein kinase HCK (Homo sapiens) (UniProt P08631); assay: Inhibition of HCK at 10 uM; details: values are per cent of control
[39] = biological target: Cyclin-dependent kinase 14 (Homo sapiens) (UniProt O94921); assay: Inhibition of PFTK1 at 10 uM; details: values are per cent of control
[40] = biological target: Serine/threonine-protein kinase SIK2 (Homo sapiens) (UniProt Q9H0K1); assay: Inhibition of SIK2 at 10 uM
Sequence of Serine/threonine-protein kinase SIK2 (Homo sapiens) (Q9H0K1 whole entry, looked up): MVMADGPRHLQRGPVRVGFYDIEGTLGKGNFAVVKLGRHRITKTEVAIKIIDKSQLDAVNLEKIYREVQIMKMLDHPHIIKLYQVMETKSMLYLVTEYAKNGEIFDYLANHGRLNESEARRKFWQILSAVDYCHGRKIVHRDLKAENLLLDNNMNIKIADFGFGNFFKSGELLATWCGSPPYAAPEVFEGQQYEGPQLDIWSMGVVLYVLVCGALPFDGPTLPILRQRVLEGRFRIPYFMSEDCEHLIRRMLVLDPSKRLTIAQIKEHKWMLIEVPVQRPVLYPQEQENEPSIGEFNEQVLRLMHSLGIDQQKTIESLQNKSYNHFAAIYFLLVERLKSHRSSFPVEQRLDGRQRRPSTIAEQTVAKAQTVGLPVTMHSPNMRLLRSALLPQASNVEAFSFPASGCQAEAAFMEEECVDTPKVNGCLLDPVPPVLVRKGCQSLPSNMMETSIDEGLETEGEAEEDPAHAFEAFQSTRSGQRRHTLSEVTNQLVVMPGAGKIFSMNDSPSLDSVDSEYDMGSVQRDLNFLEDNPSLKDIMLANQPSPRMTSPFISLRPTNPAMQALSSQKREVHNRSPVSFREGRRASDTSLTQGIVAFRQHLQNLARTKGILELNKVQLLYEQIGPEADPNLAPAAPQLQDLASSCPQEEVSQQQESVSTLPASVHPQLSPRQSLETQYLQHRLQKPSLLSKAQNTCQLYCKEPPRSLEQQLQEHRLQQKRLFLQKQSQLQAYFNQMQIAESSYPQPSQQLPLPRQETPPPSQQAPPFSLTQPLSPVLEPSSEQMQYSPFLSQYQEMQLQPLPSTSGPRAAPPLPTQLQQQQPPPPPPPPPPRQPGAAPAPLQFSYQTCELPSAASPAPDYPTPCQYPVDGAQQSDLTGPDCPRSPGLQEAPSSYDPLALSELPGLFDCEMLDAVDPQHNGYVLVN

[41] = biological target: Serine/threonine-protein kinase 26 (Homo sapiens) (UniProt Q9P289); assay: Inhibition of MST4 at 10 uM
[42] = biological target: LIM domain kinase 1 (Homo sapiens) (UniProt P53667); assay: Inhibition of LIMK1 at 10 uM; details: values are per cent of control

Sequence of Leucine-rich repeat serine/threonine-protein kinase 2 (Homo sapiens), Q5S007 [G2019S] (Q5S007 whole entry G2019S): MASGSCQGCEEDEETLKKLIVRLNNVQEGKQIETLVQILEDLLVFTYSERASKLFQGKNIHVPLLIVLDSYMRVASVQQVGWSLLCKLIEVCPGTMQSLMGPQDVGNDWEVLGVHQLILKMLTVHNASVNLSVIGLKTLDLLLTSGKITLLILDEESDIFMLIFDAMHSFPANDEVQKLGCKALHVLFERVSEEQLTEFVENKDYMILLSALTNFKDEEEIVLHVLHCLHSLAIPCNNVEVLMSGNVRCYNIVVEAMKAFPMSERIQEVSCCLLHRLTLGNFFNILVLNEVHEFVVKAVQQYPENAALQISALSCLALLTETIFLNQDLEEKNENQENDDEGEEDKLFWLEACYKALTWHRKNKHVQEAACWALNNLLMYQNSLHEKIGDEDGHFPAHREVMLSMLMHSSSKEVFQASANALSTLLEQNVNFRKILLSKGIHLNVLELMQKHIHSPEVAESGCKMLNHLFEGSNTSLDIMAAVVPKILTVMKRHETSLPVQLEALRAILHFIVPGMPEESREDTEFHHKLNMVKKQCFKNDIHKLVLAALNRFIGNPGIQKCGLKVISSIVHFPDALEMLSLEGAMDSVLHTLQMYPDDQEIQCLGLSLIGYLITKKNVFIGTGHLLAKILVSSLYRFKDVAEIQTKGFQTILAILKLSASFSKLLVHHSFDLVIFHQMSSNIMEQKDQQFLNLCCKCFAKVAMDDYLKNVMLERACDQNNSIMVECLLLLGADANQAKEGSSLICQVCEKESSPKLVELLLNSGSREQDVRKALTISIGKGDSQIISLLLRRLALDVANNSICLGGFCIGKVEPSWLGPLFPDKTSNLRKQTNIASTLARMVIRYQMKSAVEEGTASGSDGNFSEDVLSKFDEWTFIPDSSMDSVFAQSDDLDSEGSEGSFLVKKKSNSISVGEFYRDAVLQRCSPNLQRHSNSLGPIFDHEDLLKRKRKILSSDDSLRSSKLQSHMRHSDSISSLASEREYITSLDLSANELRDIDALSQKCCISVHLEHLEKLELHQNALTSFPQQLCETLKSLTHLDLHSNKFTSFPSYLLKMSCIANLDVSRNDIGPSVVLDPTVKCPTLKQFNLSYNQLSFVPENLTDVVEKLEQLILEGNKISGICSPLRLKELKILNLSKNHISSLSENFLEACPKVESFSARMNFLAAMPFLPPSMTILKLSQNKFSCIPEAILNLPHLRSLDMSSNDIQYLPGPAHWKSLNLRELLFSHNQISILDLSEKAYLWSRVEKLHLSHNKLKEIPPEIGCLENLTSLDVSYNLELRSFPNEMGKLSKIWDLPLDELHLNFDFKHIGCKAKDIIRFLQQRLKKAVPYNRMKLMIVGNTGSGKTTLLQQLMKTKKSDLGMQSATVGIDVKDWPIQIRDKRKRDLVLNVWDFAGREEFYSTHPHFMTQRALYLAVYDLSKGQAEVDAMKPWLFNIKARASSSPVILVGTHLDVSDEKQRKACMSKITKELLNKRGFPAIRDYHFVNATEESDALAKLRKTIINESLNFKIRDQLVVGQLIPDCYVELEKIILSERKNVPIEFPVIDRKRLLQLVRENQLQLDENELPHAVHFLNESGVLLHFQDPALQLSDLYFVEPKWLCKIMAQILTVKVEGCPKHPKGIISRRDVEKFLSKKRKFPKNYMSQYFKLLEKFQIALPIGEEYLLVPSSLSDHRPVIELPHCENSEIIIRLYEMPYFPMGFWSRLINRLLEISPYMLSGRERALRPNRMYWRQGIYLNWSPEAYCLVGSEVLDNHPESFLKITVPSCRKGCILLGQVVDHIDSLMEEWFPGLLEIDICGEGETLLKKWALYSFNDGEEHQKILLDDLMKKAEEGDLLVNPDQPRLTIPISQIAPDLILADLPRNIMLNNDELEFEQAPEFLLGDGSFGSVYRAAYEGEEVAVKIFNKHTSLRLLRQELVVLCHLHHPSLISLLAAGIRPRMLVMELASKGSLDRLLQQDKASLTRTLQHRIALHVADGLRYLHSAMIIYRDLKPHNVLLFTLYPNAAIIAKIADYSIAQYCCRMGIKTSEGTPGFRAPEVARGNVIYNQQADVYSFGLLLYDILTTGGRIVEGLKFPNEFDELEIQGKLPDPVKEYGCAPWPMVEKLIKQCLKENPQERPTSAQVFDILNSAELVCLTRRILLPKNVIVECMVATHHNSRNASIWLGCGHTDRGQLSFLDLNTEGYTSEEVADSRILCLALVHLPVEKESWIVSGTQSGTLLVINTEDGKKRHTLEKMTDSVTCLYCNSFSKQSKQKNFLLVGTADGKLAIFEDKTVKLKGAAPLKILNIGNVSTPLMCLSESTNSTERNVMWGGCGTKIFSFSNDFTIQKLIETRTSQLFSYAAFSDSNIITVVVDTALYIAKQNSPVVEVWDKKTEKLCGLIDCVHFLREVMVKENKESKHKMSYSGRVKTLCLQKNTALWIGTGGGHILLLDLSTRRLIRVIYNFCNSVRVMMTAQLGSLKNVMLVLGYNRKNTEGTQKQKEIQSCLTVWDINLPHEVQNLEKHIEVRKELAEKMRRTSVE

CCN1CCN(Cc2ccc(NC(=O)c3ccc(C)c(C#Cc4cnc5[nH]ccc5c4)c3)cc2C(F)(F)F)CC1
inhibition [1]: 40% | residual binding, % of control [2]: 8.8% | level, % of control [3]: 31% | level, % of control [4]: 0.45% | residual binding, % of control [5]: 0.1% | inhibition [6]: 1.2% | residual binding, % of control [7]: 100% | level, % of control [8]: 61% | inhibition [9]: 85% | residual binding, % of control [10]: 48% | level, % of control [11]: 2.9% | level, % of control [12]: 13% | residual binding, % of control [13]: 25% | inhibition [14]: 53% | residual binding, % of control [15]: 30% | residual binding, % of control [16]: 1.4% | residual binding, % of control [17]: 0.45% | level, % of control [18]: 0.4% | residual binding, % of control [19]: 100% | residual binding, % of control [20]: 0% | level, % of control [21]: 0.3% | residual binding, % of control [22]: 100% | residual binding, % of control [23]: 92% | inhibition [24]: 63% | residual binding, % of control [25]: 0.1% | residual binding, % of control [26]: 0.35% | residual binding, % of control [27]: 98% | residual binding, % of control [28]: 64% | inhibition [29]: 0% | inhibition [30]: 24% | inhibition [31]: 0.15% | residual binding, % of control [32]: 6.8% | residual binding, % of control [33]: 0.05% | level, % of control [34]: 0.05% | residual binding, % of control [35]: 4.9% | inhibition [36]: 0.7% | residual binding, % of control [37]: 11% | residual binding, % of control [38]: 0.15% | residual binding, % of control [39]: 1.6% | inhibition [40]: 18% | inhibition [41]: 11% | residual binding, % of control [42]: 1.2%

CCN1CCN(Cc2ccc(NC(=O)c3ccc(C)c(C#Cc4cccnc4)c3)cc2C(F)(F)F)CC1
inhibition [1]: 42% | residual binding, % of control [2]: 7.5% | level, % of control [3]: 52% | level, % of control [4]: 0.55% | residual binding, % of control [5]: 0.15% | inhibition [6]: 0.25% | residual binding, % of control [7]: 100% | level, % of control [8]: 70% | inhibition [9]: 100% | residual binding, % of control [10]: 37% | level, % of control [11]: 6.2% | level, % of control [12]: 10% | residual binding, % of control [13]: 18% | inhibition [14]: 90% | residual binding, % of control [15]: 65% | residual binding, % of control [16]: 1.4% | residual binding, % of control [17]: 0.05% | level, % of control [18]: 0.45% | residual binding, % of control [19]: 100% | residual binding, % of control [20]: 0% | level, % of control [21]: 0.35% | residual binding, % of control [22]: 100% | residual binding, % of control [23]: 100% | inhibition [24]: 51% | residual binding, % of control [25]: 0.55% | residual binding, % of control [26]: 0.25% | residual binding, % of control [27]: 81% | residual binding, % of control [28]: 83% | inhibition [29]: 0% | inhibition [30]: 39% | inhibition [31]: 0.4% | residual binding, % of control [32]: 4.2% | residual binding, % of control [33]: 0% | level, % of control [34]: 0.05% | residual binding, % of control [35]: 4% | inhibition [36]: 9.5% | residual binding, % of control [37]: 13% | residual binding, % of control [38]: 0.05% | residual binding, % of control [39]: 0.85% | inhibition [40]: 21% | inhibition [41]: 21% | residual binding, % of control [42]: 3%
